Assay results as given in patent US10435392B2, “Bipyrazole derivatives as JAK inhibitors” (Incyte Corporation, priority 2013, dated 2019).
Counter-ions that a name gives are not always drawn.

test system: human JAK1; test: In vitro JAK kinase assay (HTRF, phosphorylation of a biotinylated peptide), JAK1; assay type: biochemical; details: ratio of IC50 values at 1 mM ATP
Protocol: The catalytic activity of JAK1, JAK2 or JAK3 was assayed by measuring the phosphorylation of a biotinylated peptide. The phosphorylated peptide was detected by homogenous time resolved fluorescence (HTRF). […] Reactions were carried out at room temperature for 1 hour and then stopped with 20 μL 45 mM EDTA, 300 nM SA-APC, 6 nM Eu-Py20 in assay buffer (Perkin Elmer, Boston, Mass.). Binding to the Europium labeled antibody took place for 40 minutes and HTRF signal was measured on a Fusion plate reader (Perkin Elmer, Boston, Mass.).

Q: For `Cc1n[nH]cc1-c1cnn(C2(CC#N)CN(c3ccc(C(=O)NC(C)C)cc3)C2)c1` [Example 3, 4-[3-(Cyanomethyl)-3-(3′-methyl-1H,1′H-4,4′-bipyrazol-1-yl)azetidin-1-yl]-N-isopropylbenzamide Trifluoroacetate], which JAK2/JAK1 is on record?
A: Its JAK2/JAK1 is >10.

Q: How did the JAK2/JAK1 turn out when `Cc1n[nH]cc1-c1cn(C2(CC#N)CN(c3cc(F)c(C(=O)N[C@@H](C)C(F)(F)F)cc3F)C2)nc1CO` [Example 13, 4-{3-(Cyanomethyl)-3-[3-(hydroxymethyl)-3′-methyl-1H,1′H-4,4′-bipyrazol-1-yl]azetidin-1-yl}-2,5-difluoro-N-[(1S)-2,2,2-trifluoro-1-methylethyl]benzamide] was run?
A: Its JAK2/JAK1 is >10.

Q: With `Cc1n[nH]c(C)c1-c1cnn(C2(CC#N)CN(c3cnc(C(=O)N[C@@H](C)C(F)(F)F)cn3)C2)c1` [Example 9, 5-[3-(Cyanomethyl)-3-(3′,5′-dimethyl-1H,1′H-4,4′-bipyrazol-1-yl)azetidin-1-yl]-N-[(1S)-2,2,2-trifluoro-1-methylethyl]pyrazine-2-carboxamide Trifluoroacetate] as the molecule, how does the JAK2/JAK1 read?
A: Its JAK2/JAK1 is >10.

Q: `Cc1[nH]ncc1-c1cnn(C2(CC#N)CN(c3cnc(C(=O)N[C@@H](C)C(F)(F)F)cn3)C2)c1` [Example 1, 5-[3-(Cyanomethyl)-3-(3′-methyl-1H,1′H-4,4′-bipyrazol-1-yl)azetidin-1-yl]-N-[(1S)-2,2,2-trifluoro-1-methylethyl]pyrazine-2-carboxamide trifluoroacetate] was tested. Which JAK2/JAK1 did it give?
A: The JAK2/JAK1 was >10.

Q: How did the JAK2/JAK1 turn out when `Cc1n[nH]cc1-c1cn(C2(CC#N)CN(c3cnc(C(=O)NC(C)C)cn3)C2)nc1C` [Example 6, 5-[3-(Cyanomethyl)-3-(3,3′-dimethyl-1H,1′H-4,4′-bipyrazol-1-yl)azetidin-1-yl]-N-isopropylpyrazine-2-carboxamide Trifluoroacetate] was run?
A: Its JAK2/JAK1 is >10.

Q: How did the JAK2/JAK1 turn out when `Cc1n[nH]cc1-c1cnn(C2(CC#N)CN(c3cnc(C(=O)NC(C)C)cn3)C2)c1` [Example 2, 5-[3-(Cyanomethyl)-3-(3′-methyl-1H,1′H-4,4′-bipyrazol-1-yl)azetidin-1-yl]-N-isopropylpyrazine-2-carboxamide Trifluoroacetate] was run?
A: Its JAK2/JAK1 is >10.

Q: How did the JAK2/JAK1 turn out when `C[C@H](NC(=O)c1cc(F)c(N2CC(CC#N)(n3cc(-c4cn[nH]c4)cn3)C2)cc1F)C(F)(F)F` [Example 5, 4-[3-(1H,1′H-4,4′-Bipyrazol-1-yl)-3-(cyanomethyl)azetidin-1-yl]-2,5-difluoro-N-[(1S)-2,2,2-trifluoro-1-methylethyl]benzamide Trifluoroacetate] was run?
A: Its JAK2/JAK1 is >10.
